# According to patent publication US11001590B2, “Pyrazolopyrimidine derivatives” (BAYER ANIMAL HEALTH GMBH, priority 2016, dated 2021):
# pEC50: −log10 of the molar value.
# Columns and labels:
# [1] = test system: Dirofilaria immitis microfilariae; experiment: In vitro assay 3: Dirofilaria immitis microfilariae (DIROIM L1), motility; conditions: 72 h, reduction of motility vs negative control, 72 h incubation
# [2] = log P by HPLC on reversed phase columns (Method L0; [a] acidic, [b] neutral range)
# Description: Calibration was done with straight-chain alkan-2-ones (with 3 to 16 carbon atoms) with known log P values (measurement of log P values using retention times with linear interpolation between successive alkanones). Lambda-max-values were determined using UV-spectra from 200 nm to 400 nm and the peak values of the chromatographic signals.
# C. elegans Slo-1a = C. elegans Slo-1a (Caenorhabditis elegans, UniProt Q95V25); experiment: In vitro assay 1: C. elegans Slo-1a, action at a recombinant C. elegans CHO cell line (membrane potential measurement)
# Chain of C. elegans Slo-1a (Q95V25 whole entry): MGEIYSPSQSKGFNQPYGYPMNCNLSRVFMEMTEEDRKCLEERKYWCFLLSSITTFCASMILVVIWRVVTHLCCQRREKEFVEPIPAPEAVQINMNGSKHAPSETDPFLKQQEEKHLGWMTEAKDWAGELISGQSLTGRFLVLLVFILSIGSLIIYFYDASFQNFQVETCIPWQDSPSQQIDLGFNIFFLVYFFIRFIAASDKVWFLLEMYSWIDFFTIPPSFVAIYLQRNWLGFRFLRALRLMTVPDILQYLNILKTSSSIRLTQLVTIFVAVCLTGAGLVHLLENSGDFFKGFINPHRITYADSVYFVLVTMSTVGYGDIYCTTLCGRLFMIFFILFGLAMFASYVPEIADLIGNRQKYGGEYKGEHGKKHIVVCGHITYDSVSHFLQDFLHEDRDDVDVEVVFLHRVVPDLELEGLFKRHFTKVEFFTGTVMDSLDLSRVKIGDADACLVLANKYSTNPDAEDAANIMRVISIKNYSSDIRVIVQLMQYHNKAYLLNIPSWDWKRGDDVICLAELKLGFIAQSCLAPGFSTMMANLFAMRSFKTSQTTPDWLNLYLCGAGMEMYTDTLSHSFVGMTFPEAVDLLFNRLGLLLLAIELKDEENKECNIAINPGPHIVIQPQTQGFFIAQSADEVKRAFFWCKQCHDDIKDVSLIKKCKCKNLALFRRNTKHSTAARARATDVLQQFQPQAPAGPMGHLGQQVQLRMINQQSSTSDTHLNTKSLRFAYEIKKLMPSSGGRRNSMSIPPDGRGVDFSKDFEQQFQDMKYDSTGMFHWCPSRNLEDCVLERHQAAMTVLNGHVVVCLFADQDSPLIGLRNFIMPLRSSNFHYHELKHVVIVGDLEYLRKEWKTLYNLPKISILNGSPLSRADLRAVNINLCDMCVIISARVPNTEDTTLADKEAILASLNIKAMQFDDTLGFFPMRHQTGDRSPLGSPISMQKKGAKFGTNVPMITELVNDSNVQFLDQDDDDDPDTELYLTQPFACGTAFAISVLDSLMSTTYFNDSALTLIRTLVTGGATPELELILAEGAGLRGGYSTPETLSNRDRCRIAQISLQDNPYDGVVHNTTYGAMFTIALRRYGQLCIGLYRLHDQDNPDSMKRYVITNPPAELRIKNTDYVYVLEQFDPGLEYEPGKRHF
Compound,EC50 [1] [µg/mL],chromatographic logP [2],pEC50 (C. elegans Slo-1a)
CCCOCc1cccc(-c2c(C)nn3c(C(C)C)c(C(=O)N[C@H]4CCc5ccccc54)cnc23)c1 [Example 390],< 10,5.4,7.40
COc1cc(-c2c(C)nn3c(C(C)C)c(C(=O)N[C@H]4CCOc5ccccc54)cnc23)cc(C(F)(F)F)c1 [Example 391],< 1,5.13,7.60
Cc1nn2c(C(C)C)c(C(=O)N[C@H]3CCOc4ccccc43)cnc2c1-c1cccc(OC(F)(F)F)c1 [Example 394],< 0.1,5.19,7.80
Cc1nn2c(C(C)C)c(C(=O)N[C@H]3CCc4ccccc43)cnc2c1-c1cnn(C(C)C)c1 [Example 398],< 1,3.77,7.70
Cc1nn2c(C(C)C)c(C(=O)N[C@H]3CCc4ccccc43)cnc2c1-c1cccc(CN2CCN(C)CC2)c1 [Example 399],< 10,1.98,5.10
Cc1nn2c(C(C)C)c(C(=O)N[C@H]3CCc4ccccc43)cnc2c1-c1cccc(CS(C)(=O)=O)c1 [Example 400],< 10,3.39,6.90
CC(C)c1c(C(=O)N[C@H]2CCc3ccccc32)cnc2c(-c3cccc(N(C)C)c3)c(C3CC3)nn12 [Example 407],< 10,4.81,6.90
COc1cccc(-c2c(C3CC3)nn3c(C(C)C)c(C(=O)N[C@H]4CCc5ccccc54)cnc23)c1 [Example 408],< 10,5.19,6.50
CC(C)c1c(C(=O)N[C@H]2CCc3ccccc32)cnc2c(-c3c(F)cccc3F)c(C3CC3)nn12 [Example 413],< 1,4.96,6.60
Cc1nn2c(C3CC3)c(C(=O)N[C@H]3CCc4ccccc43)cnc2c1-c1cccc(OC(F)F)c1 [Example 417],< 0.1,4.01,8.10
Cc1nn2c(C3CC3)c(C(=O)N[C@H]3CCc4ccccc43)cnc2c1-c1cccc(OC2CC2)c1 [Example 418],< 0.1,4.29,8.50
Cc1nn2c(C(C)C)c(C(=O)N[C@H]3CCCc4ccccc43)cnc2c1-c1cnn(CC2CC2)c1 [Example 420],< 10,4.13,8.10
COc1cc(-c2c(C)nn3c(C4CC4)c(C(=O)N[C@H]4CCc5ccccc54)cnc23)cc(C(F)(F)F)c1 [Example 423],< 10,4.7,7.20
Cc1nn2c(C3CC3)c(C(=O)N[C@H]3CCc4ccccc43)cnc2c1-c1cc(Cl)cc(C(F)(F)F)c1 [Example 425],< 10,5.34,7.10
CC(C)c1c(C(=O)N[C@H]2CCc3ccccc32)cnc2c(-c3cccc(N(C)C)c3)c(C(F)F)nn12 [Example 427],< 10,4.3,7.70
COc1cccc(-c2c(C(F)F)nn3c(C(C)C)c(C(=O)N[C@H]4CCc5ccccc54)cnc23)c1 [Example 428],< 0.1,4.42,7.60
CC(C)c1c(C(=O)N[C@H]2CCc3ccccc32)cnc2c(-c3cccc(F)c3)c(C(F)F)nn12 [Example 429],< 10,4.57,7.40
COCc1cccc(-c2c(C(F)F)nn3c(C(C)C)c(C(=O)N[C@H]4CCc5ccccc54)cnc23)c1 [Example 430],< 1,4.36,7.80
CC(C)c1c(C(=O)N[C@H]2CCc3ccccc32)cnc2c(-c3cccc(OC(F)(F)F)c3)c(C(F)F)nn12 [Example 431],< 10,5.18,8.20
CC(C)c1c(C(=O)N[C@H]2CCc3ccccc32)cnc2c(-c3cccc(C(F)(F)F)c3)c(C(F)F)nn12 [Example 433],< 10,5.03,8.00
